These results are taken from US12577594B2, “Engineered microorganisms and methods for improved aldehyde dehydrogenase activity” (Genomatica, Inc., priority 2019, dated 2026).

Some results are limits rather than exact numbers.

Assay in all cases: Kinetic characterization of purified Ald with varied substrate CoA (Example 4, Table 5)
Data set [1] has as its system Acidaminococcus massiliensis aldehyde dehydrogenase (Ald), SEQ ID NO: 28. Format: biochemical. The settings on record: for Catalytic efficiency kcat/KM / Km / Turnover number kcat: purified protein, substrate CoA varied, conditions similar to Example 1 (0.1 M Tris-HCl, pH 7.5). The procedure:
(§1) The lysates (5 μl) were added to an assay mixture to result in a total volume of 20 μL with final concentrations of 0.1 M Tris-HCl, pH 7.5, 2.5 mM adipyl-CoA (AdCoA), and either 0.5 mM NADH or 0.5 mM NADPH. This assay was used to screen all of the Ald enzyme candidates. Some Ald candidates were also assayed using succinyl-CoA (SuCoA) or acetyl-CoA (AcCoA) as substrates. AdCoA, SuCoA, and AcCoA were obtained from commercial suppliers. Activity was monitored by a linear decrease in fluorescence of NADH or NADPH in the presence of the CoA substrate.
(§2) Kinetic characterization was done under similar conditions as the lysate screening described in Example 1; however, in this case purified protein was used instead of cell lysates. Each of the Acidaminococcus massiliensis Ald (SEQ ID NO:28), the Collinsella sp. GD7 Ald (SEQ ID NO:60), and the Romboutsia lituseburensis DSM Ald (SEQ ID NO:107) was purified using affinity chromatography. In these assays, the concentration each of the substrate CoAs was varied to determine the turnover number (kcat), the affinity of the enzyme for the substrate (KM) of the enzyme, the catalytic efficiency (kcat/KM) of each selected Ald enzyme for each substrate were determined and shown in the Table 5 below.
(§3) Catalytic efficiency (kcat/KM) of the various aldehyde dehydrogenases using various substrates were plotted in a bar graph for comparison (FIG. 3A).

The target of data set [2] is Romboutsia lituseburensis DSM aldehyde dehydrogenase (Ald), SEQ ID NO: 107 (Romboutsia lituseburensis, UniProt A0A1G9MGA8). Format: biochemical. The settings on record: ratio of kcat/KM. Here is the method: as §1, §2, §3
For data set [3], the system named is Collinsella sp. GD7 aldehyde dehydrogenase (Ald), SEQ ID NO: 60. Format: biochemical. The settings on record: for Catalytic efficiency kcat/KM / Km / Turnover number kcat: purified protein, substrate CoA varied, conditions similar to Example 1 (0.1 M Tris-HCl, pH 7.5). The procedure:
as §1, §2, §3

In data set [4] the test system is CC(C)(COP(=O)(O)OP(=O)(O)OC[C@H]1O[C@@H](n2cnc3c(N)ncnc32)[C@H](O)[C@@H]1OP(=O)(O)O)[C@@H](O)C(=O)NCCC(=O)NCCSC(=O)CCCCC(=O)O. The data set is classed as biochemical, Romboutsia lituseburensis DSM. The settings on record: other: purified protein, conditions similar to Example 1 (0.1 M Tris-HCl, pH 7.5). The procedure: as §1, §2, §3
Data set [5] relates to CC(C)(COP(=O)(O)OP(=O)(O)OC[C@H]1O[C@@H](n2cnc3c(N)ncnc32)[C@H](O)[C@@H]1OP(=O)(O)O)[C@@H](O)C(=O)NCCC(=O)NCCSC(=O)CCC(=O)O. Format: biochemical, Romboutsia lituseburensis DSM. The settings on record: other: purified protein, conditions similar to Example 1 (0.1 M Tris-HCl, pH 7.5). Here is the method:
as §1, §2, §3

Data set [6] deals with CC(=O)SCCNC(=O)CCNC(=O)[C@H](O)C(C)(C)COP(=O)(O)OP(=O)(O)OC[C@H]1O[C@@H](n2cnc3c(N)ncnc32)[C@H](O)[C@@H]1OP(=O)(O)O. The data set is classed as biochemical, Romboutsia lituseburensis DSM. The following applies: other: purified protein, conditions similar to Example 1 (0.1 M Tris-HCl, pH 7.5). The procedure:
as §1, §2, §3

As to `CC(C)(COP(=O)(O)OP(=O)(O)OC[C@H]1O[C@@H](n2cnc3c(N)ncnc32)[C@H](O)[C@@H]1OP(=O)(O)O)[C@@H](O)C(=O)NCCC(=O)NCCSC(=O)CCCCC(=O)O` [Adipyl-CoA], the “Catalytic efficiency kcat/KM” value in data set [1] was 3000 M⁻¹ s⁻¹; in data set [3] it was 150 M⁻¹ s⁻¹. Moreover, the Km came to 810 µM in data set [1] and 100 µM in data set [3]. The Turnover number kcat in data set [1] came out at 2.5 s⁻¹; in data set [3], 0.015 s⁻¹. The “Catalytic efficiency (kcat/KM) for adipyl-CoA over succinyl-CoA” value in data set [1] (ratio of kcat/KM, FIG. 3B) was “higher catalytic efficiency for adipyl-CoA over succinyl-CoA”; in data set [2] (FIG. 3B), “higher catalytic efficiency for adipyl-CoA over succinyl-CoA”; in data set [3] (ratio of kcat/KM, FIG. 3B), “higher catalytic efficiency for adipyl-CoA over succinyl-CoA”. For the same compound, the “Catalytic efficiency (kcat/KM) for adipyl-CoA over acetyl-CoA” value is reported as “higher catalytic efficiency for adipyl-CoA over acetyl-CoA” in data set [1] (ratio of kcat/KM, FIG. 3C); “higher catalytic efficiency for adipyl-CoA over acetyl-CoA” in data set [2] (FIG. 3C); “higher catalytic efficiency for adipyl-CoA over acetyl-CoA” in data set [3] (ratio of kcat/KM, FIG. 3C).

For the compound `CC(=O)SCCNC(=O)CCNC(=O)[C@H](O)C(C)(C)COP(=O)(O)OP(=O)(O)OC[C@H]1O[C@@H](n2cnc3c(N)ncnc32)[C@H](O)[C@@H]1OP(=O)(O)O` [Acetyl-CoA], in data set [1], the “Catalytic efficiency kcat/KM” value stood at 100 M⁻¹ s⁻¹, the Km was 380 µM and the Turnover number kcat amounted to 0.040 s⁻¹. In data set [3], the “Catalytic efficiency kcat/KM” value was found to be 1.6 M⁻¹ s⁻¹ and the Km was more than 2000 µM.

On to `CC(C)(COP(=O)(O)OP(=O)(O)OC[C@H]1O[C@@H](n2cnc3c(N)ncnc32)[C@H](O)[C@@H]1OP(=O)(O)O)[C@@H](O)C(=O)NCCC(=O)NCCSC(=O)CCC(=O)O` [Succinyl-CoA], for which, in data set [1], the “Catalytic efficiency kcat/KM” value worked out at 290 M⁻¹ s⁻¹, the Km is 790 µM and the Turnover number kcat is 0.23 s⁻¹. Also, in data set [3], the “Catalytic efficiency kcat/KM” value is 26 M⁻¹ s⁻¹, the Km worked out at 400 µM and the Turnover number kcat stood at 0.010 s⁻¹.

As to “Romboutsia lituseburensis DSM aldehyde dehydrogenase (Ald), SEQ ID NO: 107 (Romboutsia lituseburensis DSM 797)”, in data set [4], the Michaelis-Menten constant (Km) worked out at 240 µM, the kcat is 1.0 s⁻¹ and the kcat/Km worked out at 4000 M⁻¹ s⁻¹. Moreover, in data set [5], the Michaelis constant (Km) stood at 220 µM, the kcat turned out to be 0.056 s⁻¹ and the kcat/Km was 250 M⁻¹ s⁻¹. Also, in data set [6], the Km was 310 µM, the turnover number (kcat) was determined as 0.013 s⁻¹ and the catalytic efficiency (kcat/Km) was determined as 40 M⁻¹ s⁻¹.

Usually Km stands for the substrate concentration at which the rate is half of its maximum. A word on the kcat: it is the number of substrate molecules converted per active site and unit of time at saturation. The kcat/Km is the second-order rate constant that governs catalysis at low substrate concentration.
